Source: US7691579B2, “Methods and compositions for producing an enhanced immune response to a human papillomavirus immunogen” (priority 2005, dated 2010)
Entries after “also recorded” stand apart in the source; their conditions may differ.

B1: IL-2: murine IL-2 (Preprotech) (protein, UniProt P04351 21-169, looked up)
Interleukin-2: APTSSSTSSSTAEAQQQQQQQQQQQQHLEQLLMDLQELLSRMENYRNLKLPRMLTFKFYLPKQATELKDLQCLEDELGPLRHVLDLTQSKSFQLEDAENFISNIRVTVVKLKGSDNTFECQFDDESATVVDFLRRWIAFCQSIISTSPQ

How the values were obtained:
HLA-A2 = target: T1, HLA-A2 (Homo sapiens, UniProt P04439, D140Y/D185E/D98H/E176V/E277Q/G131W/G231S/I119V/I121R/I166T/I218V/L300P/L318F/N151K/N90K/P208A/P217A/Q86G/Q94H/R138H/R169H/T345S); experiment: T2 binding assay (HLA-A2 stabilisation on T2 cells, fluorescence index)
T1 construct: The T2 cell expresses HLA-A2 and is TAP1 and TAP2 deficient; endogenous in cells; host or cells: T2 cells
Procedure: The sequences are derived from HPV 16 E2. T2 cells were loaded with various concentrations of peptides. Level of surface class I molecules were assessed by flow cytometric analysis using mouse monoclonal antibodies specific for HLA-A2. Fluorescence index=Fluorescence after peptide stimulation/Fluorescence without peptide −1.
Since little was known about the MHC class I epitopes for E2, HLA-A2 binding sequences derived from HPV 16 E2 were investigated. […] To test the binding affinity of these peptides to HLA-A2, a T2 binding assay was performed. The T2 cell expresses HLA-A2 and is TAP1 and TAP2 deficient.

[1] = tested on: C1R.ADD target cells pulsed with E2 peptides; experiment: IFN-gamma ELISPOT assay in immunized AAD mice, response to E2; type: in vivo, HLA-A2 transgenic mice (AAD); settings: for T cell response to E2 (IFN-gamma ELISPOT), in words / IFN-gamma producing cells (ELISPOT): AAD mice; for T cell response to E2 (IFN-gamma ELISPOT), in words: protocol as labelled; for IFN-gamma producing cells (ELISPOT): E2 peptides + GM-CSF + anti-CD40 in IFA, boosted with E2 peptides in IFA
Excerpt: AAD Mice were immunized with three E2 peptides. […] A target cell, C1R.ADD, was pulsed with peptides. C1R.ADD alone was used as negative control, and E7 86-93 was used as a specificity control. Mice are immunized with the indicated 1st immunization and are then given the indicated 2nd immunization (booster immunization) four weeks later. The G1, G2, and G3 immunization protocols employed are as follows: G1 (1st immunization: IFA+GM-CSF+anti-CD40 antibody+E2 peptides; 2nd immunization: IFA+E2 peptides); G2 (1st immunization: IFA+GM-CSF+anti-CD40 antibody+E2 peptides; 2 immunization: none); G3 (1st immunization: none; 2nd immunization: IFA+E2 peptides).
AAD Mice were immunized with different combinations of VLP-E7E2 and E2 peptides with/without Gm-CSF and αCD40. Target cells were pulsed with E2 peptide. Immunization with E7 11-20 peptides is used as a control. The G1 and G2 immunization protocols employed are as follows: G1 (1st immunization: IFA+GM-CSF+anti-CD40 antibody+E2 69-77 peptides); G2 (1st immunization: L1-VLP-L2-E2-E7+GM-CSF+anti-CD40 antibody).
Target cells are C1R.ADD cells pulsed with the indicated peptides.
(§1) Immunization: Mice were immunized subcutaneously at the base of the tail with the chimeric VLPs. GM-CSF (Preprotech, Rocky Hill, N.J.) was given the day before and the same day as the VLP injection. Anti-CD40 (SouthernBiotech, Birmingham Ala.) was given with the VLP. Mice were also immunized with 50 nmoles of peptide in incomplete Freund's adjuvant (IFA) with or without GM-CSF (5 μg/mouse) and anti-CD40 (10 μg/mouse). All vaccines were prepared immediately prior to injection. Each group had 4 mice, and the pooled spleen cells from four mice were used for assays. 10 μg of VLP-E7E2 was given to a mouse. The MW of the VLP-E7E2 is about 5280 Kd (72×L1@55 Kd=3960 Kd, and 12×L2E7E2@110 kd=1320 Kd). The number of moles of VLP-E7E2 in 10 μg of total protein is about […].
ELISPOT assay: The number of IFN-gamma-producing cells is also determined by ELISPOT assay. The anti-IFN-gamma antibody, 5 μg/ml, in PBS are coated on Millipore's multiscreen-HA plate (Millipore, Marlborough, Mass.) overnight at 4° C. The plate is blocked by incubation in RPMI containing 10% FCS for 3 hours at room temperature, and then the plate is washed two or three times with PBS. Target cells, EL-4 or C1R.ADD, are incubated with or without peptides for 2 hour at room temperature, washed twice. Then, they were placed at 5,000 per well. The effector cells were from 40,000 to 50,000 per well. After a 20 hour incubation period at 37° C., the plate is washed six times with PBS containing 0.05% Tween 20. The biotin-labeled anti-IFN-gamma, at 2 μg/ml, is added to the plate. After a 3 hour incubation period at room temperature, the plate is washed six times, and developed using an ABC kit from Vector Lab (Burlingame, Calif.). The spots are counted using Immunspot™ CTL (Cleveland Ohio). Data are expressed as an average from triplicate wells.
Induction of CD8+ T Cell Response to E2 Peptides. […] One group of mice was boosted with E2 peptides in IFA emulsion (IFA-E2) two weeks later. An IFN-gamma ELISPOT assay was performed using spleen cells collected either two or four weeks after vaccination as shown in FIG. 14. The immunization protocol is shown in Table 4 below (50 nmoles of each immunogen was employed; “E2s” refers to E2 peptides).
Enhancing CTL Response to E2. […] When AAD mice were immunized with either 50 nmoles E2 69-77 with immune modulators in IFA or 24 pmoles of VLP-E7E2 with immune-modulators in aqueous solution, a marginal CD8+ T cell response to E2 was detected by ELISPOT assay using fresh isolated spleen cells from both groups of mice (FIG. 15, Panel A and Panel B). […]

[2] = tested on: wild type (SEQ ID NO: 1) and modified (SEQ ID NO: 9) E2 peptides; experiment: Elispot assay of mice immunized with wild type or modified E2 138-147 peptide; type: in vivo; settings: mice immunized with the labelled peptide
[3] = tested on: EL-4 target cells pulsed with E7 49-57 peptides; experiment: CTL assay (51Cr release) with spleen cells of immunized C57BL/6 mice; type: in vivo; settings: given in aqueous solution with VLP-E7E2
Procedure: as §1
(§2) CTL assay: Two (or three) weeks after immunization, spleens were aseptically removed and single cell suspensions are prepared. […] Cytolytic activity of cells is measured by a 4-h assay with ^51Cr-labeled EL-4 or C1R.AAD target cells in triplicate wells. Percent ^51Cr release is calculated as 100×(experimental release-spontaneous release)/(maximum release-spontaneous release). Maximum release is determined from supernatants of cells that are lysed by addition of […]. Spontaneous release is determined from target cells culture in medium. Data are expressed as an average from triplicate wells. […]

[4] = tested on: C1R.AAD target cells pulsed with E7 11-20 and E7 86-93 peptides; experiment: CTL assay (51Cr release) with spleen cells of immunized AAD mice, response to E7; type: in vivo, HLA-A2 transgenic mice (AAD); settings: co-injected in aqueous solution
Procedure: as §1, §2

Row | Molecule | binding to HLA-A2, in words (HLA-A2) | T cell response to E2 (IFN-gamma ELISPOT), in words [1] | concentration at FI 0.5 (HLA-A2) | IFN-gamma producing cells (ELISPOT) [1] | also measured
1 | TLQDVSLEV [E2 93-101, HPV 16 E2 peptide] | did not bind; also recorded: no binding activity | did not elicit a T cell response | – | – | –
2 | ALQAIELQL [E2 69-77, HPV 16 E2 peptide] | high binding affinity; also recorded: displayed binding ability | induce a CD8+ T cell response; also recorded: immunogenic | 50 µM | 32 spots/million | –
3 | YICEEASVTV [E2 138-147] | high binding affinity; also recorded: displayed binding ability | induce a CD8+ T cell response; also recorded: immunogenic | 50 µM | 53 spots/million | IFN-gamma production (ELISPOT), response to E2 ([1]; boosted with E2 peptides in IFA four weeks after the initial immunization): more immunogenic; immune response to wild type and modified E2 peptides (Elispot) [2]: failed to elicit an immune response
4 | YLAEEASVTV [E2 138-147 modified] | higher HLA.A2 binding affinity | – | – | – | immune response to wild type and modified E2 peptides (Elispot) ([2]; listed as modified peptide (SEQ ID NO: 9)): elicit an immune response to both; immune response to wild type and modified E2 peptides (Elispot) ([2]; listed as new peptide (SEQ ID NO: 9)): more immunogenic
5 | RLNVCQDKIL [E2 7-16, HPV 16 E2 peptide] | no binding activity | – | – | – | –
6 | B1 | – | – | – | – | effect on the VLP-E7E2 induced CTL response [3]: no effect; effect of co-injection on the VLP-E7E2-induced CTL response to E7 [4]: no effect
